Measurements published in patent publication US20250034182A1, “PHOSPHOLIPID COMPOUNDS AND METHODS OF MAKING AND USING THE SAME” (priority 2021, published 2025).

Assays:
Type in all cases: cell-based
[1] = system: CAN97-83-GFP1 (A2a) hMPV in H1-HeLa cells; assay: hMPV H1-Hela EC50, anti-nucleoprotein ELISA (Example X); settings: human metapneumovirus, 96 h, read-out: hMPV H1-Hela EC50 (nM) (per Ex. X)
Protocol: The human metapneumoavirus (hMPV) anti-viral assay is an anti-nucleoprotein ELISA performed in infected H1-HeLa cells. H1-HeLa cells were maintained in Dulbecco's Modified Eagle's Medium with high glucose (Gibco, Cat #: 11995073) supplemented with 10% FBS (HyClone, Cat #: SH303396.03), 100 units/mL penicillin and 100 μg/mL streptomycin (Gibco, Cat #: 15140122). One day before infection, H1-HeLa cells were seeded into 96-well plates (Corning, Cat. #: 3903) at 0.1 mL/well at 1.5×10^5 cells/mL in Opti-MEM (Gibco, Cat #: 31985070) supplemented with 2% FBS, and were incubated at 37° C. in a 100% humid atmosphere containing 5% (v/v) CO2 overnight. On the next day, CAN97-83-GFP1 (A2a) hMPV was diluted in Opti-MEM medium containing 200 μg/mL CaCl2) and 2 μg/mL TPCK treated trypsin and distributed to the 96-well plates at 0.1 mL/well for an MOI=0.1. Test compounds were distributed to each well using a HP D300e digital dispenser with a final volume of 200 µL/well. After the plates were centrifuged at 700 g for one hour at room temperature, they were maintained in a humidified chamber at 37-C with 5% (v/v) CO2 for 96 hours. After the incubation, the medium was removed, and the plates were fixed with 0.1 mL/well 1% formaldehyde for 15 min at room temperature. The fixative was removed, the plates were air dried for 30-60 minutes, and then permeabilized with 0.1 mL/well 0.5% Triton X-100 in PBS for five minutes at room temperature. Following permeabilization, the plates were washed once with 0.1 mL/well blocking buffer consisting of 10% FBS (HyClone, Cat #: SH303396.03), 5% dry milk (AmericanBio, Cat #: AB10109-01000), and 0.1% Tween 20 (EMD Millipore, Cat #655204) in PBS. The plates were blocked with 0.1 mL/well blocking buffer for 60 minutes at 37° C. afterward. The blocking buffer was removed and 0.05 mL/well human metapneumovirus nucleocapsid antibody (Sigma, Cat #MAB80121) diluted 1:500 in Blocking buffer was added and incubated for two hours at 37-C. The plates were then washed with 0.2 mL/well 0.1% Tween 20/PBS five times, followed by addition of 0.05 mL/well of horseradish peroxidase (HRP) conjugated goat anti-mouse IgG antibody (Fisher Scientific, Cat #501077607) at 1:2000 dilution in the blocking buffer. After one-hour incubation at 37-C, plates were washed five times with 0.2 mL/well 0.1% tween 20 in PBS. The HRP signals were developed by adding 0.1 mL/well of TMB reagent (Thermo Scientific, Cat #: ENN301) and incubating at room until the positive control was apparent. At that point, the reaction was stopped by adding 0.1 mL/well TMB stop solution (SeraCare, Cat #: 5150-0021). The absorbance was measured at 450 nm with an EnVision plate reader. The relative absorbance was calculated by normalizing the absorbance of the compound-treated groups to that of the DMSO-treated groups (set as 100%). EC50 values were calculated using a nonlinear four parameter variable slope regression model.

in vitro [2] = settings: human
Protocol: H1-HeLa cell viability was measured using the CellTiter-Glo® Luminescent Cell Viability Assay kit (Promega, Cat #G7573) according to the manufacturer's protocol. H1-HeLa cells were maintained in Dulbecco's Modified Eagle's Medium with high glucose (Gibco, Cat #: 11995073) supplemented with 10% FBS (HyClone, Cat #: SH303396.03), 100 units/mL penicillin and 100 µg/mL streptomycin (Gibco, Cat #: 15140122). One day before compound treatment, H1-HeLa cells were seeded at […] into 96-well plates (Corning, Cat #3904) in Opti-MEM (Gibco, Cat #: 31985070) supplemented with 2% FBS, and were incubated at 37° C. in a 100% humid atmosphere containing 5% (v/v) CO2. After overnight incubation, the cells were treated with three-fold serial dilutions of the compound. At 96 hours post treatment, CellTiter-Glo reagents were added into each well and luminescence signals were recorded by an EnVision plate reader. The relative cell viability was calculated by normalizing the absorbance of the compound-treated groups to that of the DMSO-treated groups (set as 100% viability) and 10 μM puromycin treated groups (set as 0% viability). The CC50 (compound concentration for reducing 50% of cell viability) was calculated using a nonlinear regression model (four parameters).

in vitro [3] = settings: human; remark: listed apart in the source

Structure (SMILES)	EC50 [1] [nM]	CC50 at 96 h (in vitro [2]) [µM]	CC50 (in vitro [3]) [µM]
CCCCCCCCCCCCCCCCCCC[C@H](COP(=O)(O)OC[C@@]1(C#N)O[C@@H](c2ccc3c(N)ncnn23)[C@H](O)[C@@H]1O)OCc1ccc(C#N)c(OC(C)C)c1 [Compound 28, ((2R,3S,4R,5S)-5-(4-aminopyrrolo[2,1-f][1,2,4]triazin-7-yl)-2-cyano-3,4-dihydroxytetrahydrofuran-2-yl)methyl ((R)-2-((4-cyano-3-isopropoxybenzyl)oxy)henicosyl) hydrogen phosphate]	625	9.9	19
CCCCCCCCCCCCCCCCCCOC[C@@H](COP(=O)(O)OC[C@@]1(C#N)O[C@@H](c2ccc3c(N)ncnn23)[C@H](O)[C@@H]1O)Oc1ccc(C#N)nc1 [Compound 72, ((2R,3S,4R,5S)-5-(4-aminopyrrolo[2,1-f][1,2,4]triazin-7-yl)-2-cyano-3,4-dihydroxytetrahydrofuran-2-yl)methyl ((S)-2-((6-cyanopyridin-3-yl)oxy)-3-(octadecyloxy)propyl) hydrogen phosphate]	70	5.1	17
CCCCCCCCCCCCCCCCCCCC[C@H](COP(=O)(O)OC[C@@]1(C#N)O[C@@H](c2ccc3c(N)ncnn23)[C@H](O)[C@@H]1O)OCc1cc(F)cc(C#N)c1 [Compound 34, ((2R,3S,4R)-5-(4-aminopyrrolo[2,1-f][1,2,4]triazin-7-yl)-2-cyano-3,4-dihydroxytetrahydrofuran-2-yl)methyl ((R)-2-((3-cyano-5-fluorobenzyl)oxy)docosyl) hydrogen phosphate]	646	4.69	15
CCCCCCCCCCCCCCCCCCC[C@H](COP(=O)(O)OC[C@@]1(C#N)O[C@@H](c2ccc3c(N)ncnn23)[C@H](O)[C@@H]1O)OCc1cc(F)cc(C#N)c1 [Compound 25, ((2R,3S,4R,5S)-5-(4-aminopyrrolo[2,1-f][1,2,4]triazin-7-yl)-2-cyano-3,4-dihydroxytetrahydrofuran-2-yl)methyl ((R)-2-((3-cyano-5-fluorobenzyl)oxy)henicosyl) hydrogen phosphate]	1280	8.49	13
CCCCCCCCCCCCCCCCCCOCC(COc1cc(F)cc(C#N)c1)COP(=O)(O)OC[C@@]1(C#N)O[C@@H](c2ccc3c(N)ncnn23)[C@H](O)[C@@H]1O (stereo partly drawn) [Compound 43, ((2R,3S,4R,5S)-5-(4-aminopyrrolo[2,1-f][1,2,4]triazin-7-yl)-2-cyano-3,4-dihydroxytetrahydrofuran-2-yl)methyl (3-(3-cyano-5-fluorophenoxy)-2-((octadecyloxy)methyl)propyl) hydrogen phosphate]	901	4	14
CCCCCCCCCCCCCCCCCCOC[C@H](COP(=O)(O)OC[C@@]1(C#N)O[C@@H](c2ccc3c(N)ncnn23)[C@H](O)[C@@H]1O)Oc1ccc(C#N)c(OC(C)C)c1 [Compound 23, ((2R,3S,4R,5S)-5-(4-aminopyrrolo[2,1-f][1,2,4]triazin-7-yl)-2-cyano-3,4-dihydroxytetrahydrofuran-2-yl)methyl ((R)-2-(4-cyano-3-isopropoxyphenoxy)-3-(octadecyloxy)propyl) hydrogen phosphate]	156	10.8	26
